29 compounds from US20090018134A1, “Compounds - 945” (AstraZeneca AB, priority 2007, published 2009) can be followed below.

T1 sequence (P42345 1362-2549): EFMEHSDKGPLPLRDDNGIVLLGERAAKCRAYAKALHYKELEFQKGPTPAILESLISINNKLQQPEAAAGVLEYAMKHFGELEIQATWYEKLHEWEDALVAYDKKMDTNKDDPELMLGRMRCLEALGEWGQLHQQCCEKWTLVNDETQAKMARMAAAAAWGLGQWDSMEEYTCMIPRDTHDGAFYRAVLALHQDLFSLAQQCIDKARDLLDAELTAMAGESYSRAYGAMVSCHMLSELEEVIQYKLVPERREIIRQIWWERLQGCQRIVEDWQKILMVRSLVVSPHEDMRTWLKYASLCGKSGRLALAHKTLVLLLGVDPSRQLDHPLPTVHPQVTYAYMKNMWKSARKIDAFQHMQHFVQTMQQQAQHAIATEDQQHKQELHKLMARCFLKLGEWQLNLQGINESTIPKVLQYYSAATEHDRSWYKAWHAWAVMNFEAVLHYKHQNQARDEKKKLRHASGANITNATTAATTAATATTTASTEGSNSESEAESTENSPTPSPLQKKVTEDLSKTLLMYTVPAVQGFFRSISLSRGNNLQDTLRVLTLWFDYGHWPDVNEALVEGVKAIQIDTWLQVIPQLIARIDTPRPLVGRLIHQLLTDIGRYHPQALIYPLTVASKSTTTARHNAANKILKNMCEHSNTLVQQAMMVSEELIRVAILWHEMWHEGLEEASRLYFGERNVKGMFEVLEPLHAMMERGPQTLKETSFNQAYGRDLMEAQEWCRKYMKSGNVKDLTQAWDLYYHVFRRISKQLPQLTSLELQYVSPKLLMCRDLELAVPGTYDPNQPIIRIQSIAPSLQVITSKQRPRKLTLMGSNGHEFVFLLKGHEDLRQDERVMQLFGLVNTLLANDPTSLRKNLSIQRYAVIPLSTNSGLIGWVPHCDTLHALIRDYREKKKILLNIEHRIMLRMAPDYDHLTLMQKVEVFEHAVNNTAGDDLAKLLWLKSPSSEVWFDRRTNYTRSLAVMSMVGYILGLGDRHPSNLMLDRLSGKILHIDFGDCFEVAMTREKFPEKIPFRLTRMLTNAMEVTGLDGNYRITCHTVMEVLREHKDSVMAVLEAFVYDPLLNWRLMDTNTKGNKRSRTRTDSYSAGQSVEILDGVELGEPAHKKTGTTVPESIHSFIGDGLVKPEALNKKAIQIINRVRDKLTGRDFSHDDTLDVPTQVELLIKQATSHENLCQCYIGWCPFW

The first assay has as its target T1, mTOR (Homo sapiens, UniProt P42345).
T1 construct: FLAG; made in house
In words: In Vitro mTOR Kinase Assay (Echo), Test (a)(ii). Format: biochemical. Conditions: read-out: mTOR Kinase Assay (Echo). The procedure, abridged: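 AlphaScreen read-out: biotinylated substrate phosphorylation was detected with anti-p70 S6K (T389) 1A5 antibody, Protein A acceptor and streptavidin donor beads after overnight dark incubation at room temperature. Enzyme was FLAG-mTOR 1362-2549 from stable HEK293 cells.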
For the compound `CCCNC(=O)Nc1ccc(-c2nc(N3CCOC[C@@H]3C)cc(C3(S(=O)(=O)C4CCCC4)CC3)n2)cc1` [Example 9h], the IC50 was determined as 5.7 nM.

As to `C[C@H]1COCCN1c1cc(C2(S(C)(=O)=O)CCC2)nc(-c2ccc(NC(=O)NC3CCC3)cc2)n1` [Example 5d, 3-cyclobutyl-1-[4-[4-[(3S)-3-methylmorpholin-4-yl]-6-(1-methylsulfonylcyclobutyl)pyrimidin-2-yl]phenyl]urea], the IC50 stood at 3.85 nM.

Consider `C[C@H]1COCCN1c1cc(C2(S(=O)(=O)C3CC3)CC2)nc(-c2ccc(NC(=O)NCCC#N)cc2)n1` [Example 3o, 3-(2-cyanoethyl)-1-[4-[4-(1-cyclopropylsulfonylcyclopropyl)-6-[(3S)-3-methylmorpholin-4-yl]pyrimidin-2-yl]phenyl]urea], for which the IC50 is 5.96 nM.

Turning to `C[C@H]1COCCN1c1cc(C2(S(=O)(=O)c3ccc(F)cc3)CC2)nc(-c2ccc(NC(=O)NCCCO)cc2)n1` [Example 8j, 1-[4-[4-[1-(4-fluorophenyl)sulfonylcyclopropyl]-6-[(3S)-3-methylmorpholin-4-yl]pyrimidin-2-yl]phenyl]-3-(3-hydroxypropyl)urea], the IC50 worked out at 0.751 nM.

Take `CC(C)S(=O)(=O)C1(c2cc(N3CCOC[C@@H]3C)nc(-c3ccc(NC(=O)Nc4ccccn4)cc3)n2)CC1` [Example 7l, 1-[4-[4-[(3S)-3-methylmorpholin-4-yl]-6-(1-propan-2-ylsulfonylcyclopropyl)pyrimidin-2-yl]phenyl]-3-pyridin-2-yl-urea]: the IC50 was found to be 9.13 nM.

Staying with this assay, now noted: table of enzyme assay Test (a)(ii); read-out: Test (a)(ii) IC50.
Turning to `C[C@H]1COCCN1c1cc(C2(S(=O)(=O)c3ccccc3Cl)CC2)nc(-c2ccc(NC(=O)NCC(F)F)cc2)n1` [Example 76d, 1-[4-[4-[1-(2-chlorophenyl)sulfonylcyclopropyl]-6-[(3S)-3-methylmorpholin-4-yl]pyrimidin-2-yl]phenyl]-3-(2,2-difluoroethyl)urea], the IC50 turned out to be 9.24 nM.

Turning to `CNC(=O)Nc1ccc(-c2nc(N3[C@@H](C)COC[C@@H]3C)cc(C3(S(=O)(=O)c4ccccc4)CC3)n2)cc1` [Example 93a, 1-[4-[4-[1-(benzenesulfonyl)cyclopropyl]-6-[(3S,5S)-3,5-dimethylmorpholin-4-yl]pyrimidin-2-yl]phenyl]-3-methylurea], the IC50 is 3.03 nM.

For `C[C@H]1COCCN1c1cc(C2(S(=O)(=O)c3ccccc3)CC2)nc(-c2ccc(NC(=O)Nc3ncns3)cc2)n1` [Example 36bq, 1-[4-[4-[1-(benzenesulfonyl)cyclopropyl]-6-[(3S)-3-methylmorpholin-4-yl]pyrimidin-2-yl]phenyl]-3-(1,2,4-thiadiazol-5-yl)urea], the IC50 was found to be 1.31 nM.

On to `C[C@H](CO)NC(=O)Nc1ccc(-c2nc(N3CCOC[C@@H]3C)cc(C3(S(=O)(=O)C4CC4)CCC3)n2)cc1` [Example 64y, 1-[4-[4-(1-cyclopropylsulfonylcyclobutyl)-6-[(3S)-3-methylmorpholin-4-yl]pyrimidin-2-yl]phenyl]-3-[(2R)-1-hydroxypropan-2-yl]urea], for which the IC50 came to 12.5 nM.

For `C[C@H]1COCCN1c1cc(C2(S(=O)(=O)CCO)CC2)nc(-c2ccc(NC(=O)NC3CC3)cc2)n1` [Example 15, 3-Cyclopropyl-1-[4-[4-[1-(2-hydroxyethylsulfonyl)cyclopropyl]-6-[(3S)-3-methylmorpholin-4-yl]pyrimidin-2-yl]phenyl]urea], the IC50 was 1.54 nM.

For the compound `CN(C)CCNC(=O)Nc1ccc(-c2nc(N3CCOCC3)cc(C3(S(=O)(=O)C4CC4)CCC3)n2)cc1` [Example 13t, 1-[4-[4-(1-cyclopropylsulfonylcyclobutyl)-6-morpholin-4-ylpyrimidin-2-yl]phenyl]-3-(2-dimethylaminoethyl)urea], the IC50 stood at 172 nM.

Turning to `Cc1nc(S(=O)(=O)C2(c3cc(N4CCOC[C@@H]4C)nc(-c4ccc(NC(=O)NCCF)cc4)n3)CC2)sc1C` [Example 80a, 1-[4-[4-[1-[(4,5-dimethyl-1,3-thiazol-2-yl)sulfonyl]cyclopropyl]-6-[(3S)-3-methylmorpholin-4-yl]pyrimidin-2-yl]phenyl]-3-(2-fluoroethyl)urea], the IC50 worked out at 14.6 nM.

Consider `O=C(NCCO)Nc1ccc(-c2nc(N3CCOCC3)cc(C3(S(=O)(=O)C4CC4)CC3)n2)cc1` [Example 13d, 1-[4-[4-(1-cyclopropylsulfonylcyclopropyl)-6-morpholin-4-ylpyrimidin-2-yl]phenyl]-3-(2-hydroxyethyl)urea], for which the IC50 amounted to 3.51 nM.

For `CNC(=O)Nc1ccc(-c2nc(N3CCOC[C@@H]3C)cc(C3(S(=O)(=O)c4ccc(C#N)cc4Cl)CC3)n2)cc1` [Example 85e, 1-[4-[4-[1-(2-chloro-4-cyanophenyl)sulfonylcyclopropyl]-6-[(3S)-3-methylmorpholin-4-yl]pyrimidin-2-yl]phenyl]-3-methylurea], the IC50 came out at 18.3 nM.

As to `C[C@H]1COCCN1c1cc(C2(S(=O)(=O)c3ccc(C#N)cc3Cl)CC2)nc(-c2ccc(NC(=O)NCC(F)F)cc2)n1` [Example 85h, 1-[4-[4-[1-(2-chloro-4-cyanophenyl)sulfonylcyclopropyl]-6-[(3S)-3-methylmorpholin-4-yl]pyrimidin-2-yl]phenyl]-3-(2,2-difluoroethyl)urea], the IC50 was determined as 42.6 nM.

Consider `C[C@H]1COC[C@H](C)N1c1cc(C2(S(=O)(=O)C3CC3)CC2)nc(-c2ccc(NC(=O)NCCF)cc2)n1` [Example 92e, 1-[4-[4-(1-cyclopropylsulfonylcyclopropyl)-6-[(3S,5S)-3,5-dimethylmorpholin-4-yl]pyrimidin-2-yl]phenyl]-3-(2-fluoroethyl)urea], for which the IC50 came out at 5.99 nM.

On to `C[C@H]1COCCN1c1cc(C2(S(C)(=O)=O)CCC2)nc(-c2ccc(NC(=O)NC3CCC3)cc2)n1` [Example 5d, 3-cyclobutyl-1-[4-[4-[(3S)-3-methylmorpholin-4-yl]-6-(1-methylsulfonylcyclobutyl)pyrimidin-2-yl]phenyl]urea], for which the IC50 turned out to be 2.74 nM.

With `C[C@H]1COCCN1c1cc(C2(S(=O)(=O)c3ccccn3)CC2)nc(-c2ccc(NC(=O)NC(C)(C)CO)cc2)n1` [Example 28j, 3-(1-hydroxy-2-methylpropan-2-yl)-1-[4-[4-[(3S)-3-methylmorpholin-4-yl]-6-(1-pyridin-2-ylsulfonylcyclopropyl)pyrimidin-2-yl]phenyl]urea], the IC50 was found to be 5.57 nM.

With `CCCNC(=O)Nc1ccc(-c2nc(N3CCOC[C@@H]3C)cc(C3(S(=O)(=O)c4nc(C)cs4)CC3)n2)cc1` [Example 25h, 3-[4-[4-[(3S)-3-methylmorpholin-4-yl]-6-[1-[(4-methyl-1,3-thiazol-2-yl)sulfonyl]cyclopropyl]pyrimidin-2-yl]phenyl]-1-propylurea], the IC50 is 0.993 nM.

With `Cc1csc(S(=O)(=O)C2(c3cc(N4CCOCC4)nc(-c4ccc(NC(=O)NC(C)C)cc4)n3)CC2)n1` [Example 42h, 1-[4-[4-[1-[(4-methyl-1,3-thiazol-2-yl)sulfonyl]cyclopropyl]-6-morpholin-4-ylpyrimidin-2-yl]phenyl]-3-propan-2-ylurea], the IC50 came out at 4.12 nM.

Consider `CNC(=O)Nc1ccc(-c2nc(N3CCOC[C@@H]3C)cc(C3(S(=O)(=O)c4sc(C)nc4C)CC3)n2)cc1` [Example 78a, 1-[4-[4-[1-[(2,4-dimethyl-1,3-thiazol-5-yl)sulfonyl]cyclopropyl]-6-[(3S)-3-methylmorpholin-4-yl]pyrimidin-2-yl]phenyl]-3-methylurea], for which the IC50 amounted to 15.3 nM.

On to `CNC(=O)Nc1ccc(-c2nc(N3CCOC[C@@H]3C)cc(C3(S(=O)(=O)c4ccccc4F)CC3)n2)cc1` [Example 58, 1-[4-[4-[1-(2-Fluorophenyl)sulfonylcyclopropyl]-6-[(3S)-3-methylmorpholin-4-yl]pyrimidin-2-yl]phenyl]-3-methylurea], for which the IC50 was 1.15 nM.

For `CC[C@H]1COCCN1c1cc(C2(S(C)(=O)=O)CC2)nc(-c2ccc(NC(=O)NCC(F)F)cc2)n1` [Example 84d, 3-(2,2-difluoroethyl)-1-[4-[4-[(3S)-3-ethylmorpholin-4-yl]-6-(1-methylsulfonylcyclopropyl)pyrimidin-2-yl]phenyl]urea], the IC50 was 9.59 nM.

As for `C[C@H]1COCCN1c1cc(C2(S(=O)(=O)c3ccc(F)c(Cl)c3)CC2)nc(-c2ccc(NC(=O)NCC(F)F)cc2)n1` [Example 95e, 1-[4-[4-[1-(3-chloro-4-fluorophenyl)sulfonyl-cyclopropyl]-6-[(3S)-3-methylmorpholin-4-yl]pyrimi-din-2-yl]phenyl]-3-(2,2-difluoroethyl)urea], the IC50 came out at 16 nM.

For the compound `CNC(=O)CS(=O)(=O)C1(c2cc(N3CCOCC3)nc(-c3ccc(NC(=O)NC4CC4)cc3)n2)CC1` [Example 46a], the IC50 turned out to be 12.6 nM.

Consider `C[C@H]1COCCN1c1cc(C2(S(=O)(=O)CCC(C)(C)O)CC2)nc(-c2ccc(NC(=O)NCCF)cc2)n1` [Example 79d, 3-(2-fluoroethyl)-1-[4-[4-[1-(3-hydroxy-3-methylbutyl)sulfonylcyclopropyl]-6-[(3S)-3-methylmorpholin-4-yl]pyrimidin-2-yl]phenyl]urea], for which the IC50 was determined as 16.1 nM.

Consider `CCNC(=O)Nc1ccc(-c2nc(N3CCOCC3CO)cc(C3(S(=O)(=O)c4ccccc4)CC3)n2)cc1` (stereo not drawn) [Example 71, 1-[4-[4-[1-(Benzenesulfonyl)cyclopropyl]-6-[3-(hydroxymethyl)morpholin-4-yl]pyrimidin-2-yl]phenyl]-3-ethylurea], for which the IC50 stood at 18.2 nM.

As to `Cc1noc(C)c1S(=O)(=O)C1(c2cc(N3CCOC[C@@H]3C)nc(-c3ccc(NC(=O)NCC4(O)CC4)cc3)n2)CC1` [Example 59e, 1-[4-[4-[1-[(3,5-dimethyl-1,2-oxazol-4-yl)sulfonyl]cyclopropyl]-6-[(3S)-3-methylmorpholin-4-yl]pyrimidin-2-yl]phenyl]-3-[(1-hydroxycyclopropyl)methyl]urea], the IC50 was 293 nM.

On to `CNC(=O)Nc1ccc(-c2nc(N3CCOC[C@@H]3C)cc(C3(S(=O)(=O)c4ccc(F)cc4C)CC3)n2)cc1` [Example 82, 1-[4-[4-[1-(4-Fluoro-2-methylphenyl)sulfonylcyclopropyl]-6-[(3S)-3-methylmorpholin-4-yl]pyrimidin-2-yl]phenyl]-3-methylurea], for which the IC50 amounted to 9.39 nM.

Take `C[C@H]1COCCN1c1cc(C2(S(=O)(=O)c3ccc(F)c(F)c3)CC2)nc(-c2ccc(NC(=O)Nc3cnn(C)c3)cc2)n1` [Example 64k, 1-[4-[4-[1-(3,4-difluorophenyl)sulfonylcyclopro-pyl]-6-[(3S)-3-methylmorpholin-4-yl]pyrimidin-2-yl]phenyl]-3-(1-methylpyrazol-4-yl)urea]: the IC50 was 1.44 nM.
